The source of these data is patent US20230121313A1 (priority 2019, published 2023).

Read-outs that look alike come from different tables or passages of the source. Marks after values point to notes of the source that are not given here.

One may read the Cmax as the peak of the concentration-time curve. Usually Tmax stands for the time from dosing to the highest level.

The subject of series [1] is subjects with MDD at imminent risk for suicide. The conditions noted are these: double-blind phase; all randomized analysis set; N=36.
Excerpt: Among 68 randomized subjects, 66 were included in the safety analysis set (defined as receiving at least one dose of study medication in the double-blind phase). […] All safety subjects (N=66) were included in the intent-to-treat (ITT) analysis set (defined as receiving at least one dose of study medication during the double-blind phase and having both the baseline and the Day 1, 4-hour postdose evaluation for the MADRS total score). Forty-nine subjects were included in the safety (FU) analysis set (defined as all subjects who have at least 1 visit during the follow up phase).
The nature of series [2]: Pharmacokinetics of intranasal esketamine 28, 56, 84 mg in healthy subjects (Example 9). The conditions noted are these: for AUClast / AUC∞ / Cmax / t1/2 / Metabolite/Parent Ratio AUClast / Metabolite/Parent Ratio AUC∞ / Metabolite/Parent Ratio Cmax: mean; for Tmax: median; for Metabolite/Parent Ratio AUClast / Metabolite/Parent Ratio AUC∞ / Metabolite/Parent Ratio Cmax: noresketamine to esketamine. On the procedure: This was an open-label, single-center study. The subjects were healthy Caucasian men and women, 20 to 55 years of age, inclusive. […] The solution consisted of:
Pharmacokinetic blood samples for measurement of esketamine and noresketamine concentrations in plasma were collected from predose until up to 24 hours after each intranasal esketamine regimen on Day 1 of each period.
Blood samples (4 mL each) for determination of esketamine and noresketamine plasma concentrations were collected into the appropriate collection tube (e.g., Vacutainer®) at timepoints 0.00, 0.12, 0.20, 0.37, 0.53, 0.67, 0.83, 1.00, 1.25, 1.50, 2.00, 3.00, 4.00, 6.00, 9.00, 12.00, 18.00, and 24.00 h. The total amount of blood to be drawn for clinical laboratory tests and PK evaluations is approximately 327 mL.
Plasma samples were analyzed for esketamine and noresketamine concentrations using the validated, specific and sensitive liquid chromatography coupled to tandem mass spectrometry (LC-MS/MS) achiral method of Example 8.
Serial PK blood samples (4 mL each) were collected for a 24-hour period from each subject (Periods 1, 2, and 3).
The following key parameters of esketamine and noresketamine in plasma were calculated using noncompartmental methods and actual sampling times: Cmax, tmax, AUClast, AUC∞, t1/2,λ, and λz.

In the next series the test system is MDD/TRD subjects. As to conditions: 52-week safety study in MDD/TRD subjects (Berman et al., 2011); cited from earlier work.
The conditions of series [3]: for QC sample long-term storage stability: human plasma QC sample at −20° C.; for QC sample bench-top stability: human plasma QC sample; for QC sample bench-top stability / Processed sample stability: room temperature; for Stock solution stability (spike solutions): ketamine/norketamine spike solutions at −20° C.; for Whole Blood Stability: room temperature and in an ice-water bath (0-4° C.). On the procedure: This example provides an LC-MS/MS method for the determination of ketamine and norketamine in sodium heparin human plasma using ketamine-d4 and norketamine-d4 as the respective internal standards (IS).
Retention time and peak area were determined by Analyst® Data Acquisition/Processing Software (Version 1.4.2). Analyte concentrations were obtained from a calibration curve constructed by plotting the peak area ratio versus the concentration using Watson LIMS (Version 7.3). Watson LIMS and Microsoft Office Excel were used for statistical calculations. When Office Excel was used the calculations were 100% audited. Concentrations were calculated using linear regression according to the following equation: […]
Selectivity is defined as the ability of a chromatographic method to measure a response from the analyte without interference from the biological matrix. This was accomplished by evaluating six individual lots of human plasma prepared as blank and at the lower limit of quantitation (LLOQ, 0.500 ng/mL).
The matrix effect is defined as the suppression or enhancement of ionization of analytes by the presence of matrix components in the biological samples. See, e.g., C. T. Viswanathan, “Quantitative Bioanalytical Methods Validation and Implementation: Best Practices for Chromatographic and Ligand Binding Assays,” Pharmaceutical Research, Vol. 24, No. 10, October 2007, p. 1969. The matrix effect was evaluated by extracting single replicates of six lots of blank human plasma and spiking each lot at the Low and High QC concentration levels (1.50 ng/mL and 375 ng/mL) post extraction. The area ratios of the six lots of post-extraction spiked plasma samples were compared to the mean area ratio obtained from three replicates of the neat solution prepared at the same concentration level in purified water.
The linearity of the method was evaluated at a linear range of 0.500/0.500-500/500 ng/mL for ketamine/norketamine in human plasma. Linear regression (with a weighting factor of 1/x2) was used to produce the best fit for the concentration-detector response relationship for ketamine and norketamine in human plasma.
The validation was conducted with a target LLOQ of 0.500 ng/mL for ketamine and norketamine in human plasma. To evaluate the sensitivity, six QC samples prepared at the LLOQ were analyzed during three individual batch runs as part of the intra-run and inter-run accuracy and precision for the method. The concentrations were calculated with the calibration curve.
The intra-run and inter-run accuracy and precision of the method were investigated at four different QC concentration levels (0.500 ng/mL (LLOQ), 1.50 ng/mL, 80.0 ng/mL, and 375 ng/mL).
Recoveries were calculated according to the following formula: […]
To assess the reinjection reproducibility, an analyte batch containing a standard curve and QC samples was reinjected after being kept at room temperature for 161.5 hours.

Series [4] concerns PCG/RSC of adult female Sprague Dawley rats. As to conditions: 3 hours after a single intraperitoneal injection (Jevtovic-Todorovic 2000); cited from earlier work.
The mark [5] stands for this setting: noresketamine in plasma after intranasal esketamine 28 mg (Treatment A).
The mark [6] stands for this setting: noresketamine in plasma after intranasal esketamine 56 mg (Treatment B).
[7] abbreviates: noresketamine in plasma after intranasal esketamine 84 mg (Treatment C).
[8] abbreviates: freeze (−20° C.)/thaw (ice-water bath).
The mark [9] stands for this setting: freeze (−20° C.)/thaw (room temperature).
Where [10] appears, read: stock solutions at room temperature under white light.

For `CN[C@]1(c2ccccc2Cl)CCCCC1=O` [Esketamine 84 mg], in series [1], the “Withdrawn: Adverse event, % of subjects” value is recorded as “(13.9%)”; the “Withdrawn: Adverse event, number of subjects” value is recorded as 5; the “Withdrawn: Lack of Efficacy, % of subjects” value is reported as “(2.8%)”; the “Withdrawn: Lack of Efficacy, number of subjects” value came to 1.
For `NC1(c2ccccc2Cl)CCCCC1=O` (stereo not shown) [noresketamine], in series [2] (28, 56, 84 mg), the “Mean ratio of noresketamine to esketamine, AUClast” value was in the range of 3.62 to 4.32; the “Mean ratio of noresketamine to esketamine, AUC∞” value is 3.80 to 4.46; the “Mean ratio of noresketamine to esketamine, Cmax” value is reported as 1.96 to 2.55. Moreover, the “Median tmax of noresketamine, range across regimens” value in series [2] (healthy subjects, intranasal esketamine 28, 56, 84 mg) is 1.25 to 1.5 h. Besides, in series [2] (noresketamine in plasma), the “AUC (AUClast and AUC∞) variability” value is listed as 17.0% to 21.3; the “Between-subject variability for Cmax” value was 25.8% to 33.7. Further, in series [2] (setting [5]), the AUClast worked out at 454 ng·h/mL, the “AUC∞” value was 508 ng·h/mL, the Cmax came out at 92.8 ng/mL and the t1/2 is given as 7.74 h. Moreover, the Tmax in series [2] (setting [5]) came to 1.25 h. In series [2] (setting [6]), the AUClast stood at 851 ng·h/mL, the “AUC∞” value was 924^c h*ng/mL, the Cmax amounted to 154 ng/mL and the t1/2 is reported as 7.71^c h. Moreover, the Tmax in series [2] (setting [6]) is 1.50 h. For the same compound, in series [2] (setting [7]), the AUClast was 1287 ng·h/mL, the “AUC∞” value was 1392^b h*ng/mL, the Cmax was 241 ng/mL and the t1/2 is on record as 7.48^b h. Also, in series [2] (setting [7]), the time to peak (Tmax) came to 1.50 h. In addition, in series [2] (esketamine 28 mg (Treatment A)), the “Metabolite/Parent Ratio AUClast” value worked out at 3.62, the “Metabolite/Parent Ratio AUC∞” value is on record as 3.80^b and the “Metabolite/Parent Ratio Cmax” value worked out at 1.96. Moreover, in series [2] (esketamine 56 mg (Treatment B)), the “Metabolite/Parent Ratio AUClast” value was 4.07, the “Metabolite/Parent Ratio AUC∞” value was 4.22^b and the “Metabolite/Parent Ratio Cmax” value came to 2.28. In series [2] (esketamine 84 mg (Treatment C)), the “Metabolite/Parent Ratio AUClast” value turned out to be 4.32, the “Metabolite/Parent Ratio AUC∞” value is given as 4.46^d and the “Metabolite/Parent Ratio Cmax” value is given as 2.55. Moreover, the “Mean t1/2, range across regimens” value in series [2] (noresketamine, esketamine 28, 56, 84 mg) was in the range of 7.48 to 7.74 h.
For `OCCOCCN1CCN(C2=Nc3ccccc3Sc3ccccc32)CC1` [quetiapine], in the series on MDD/TRD subjects, the “Rate of discontinuation due to adverse events” value is 23.7%.
`NC1(c2ccccc2Cl)CCCCC1=O` (stereo not shown) [Norketamine]: the “QC sample freeze/thaw stability” value in series [3] (setting [8]) is listed as 3 freeze (−20° C.)/thaw (ice-water bath) cycles. Also, the “QC sample freeze/thaw stability” value in series [3] (setting [9]) is 3 freeze (−20° C.)/thaw (room temperature) cycles. For the same compound, in series [3], the “QC sample long-term storage stability” value came out at 1552 days at −20 °C, the “QC sample bench-top stability” value was 68.5 hours at room temp, the “Stock solution stability (spike solutions)” value is 610 days at −20 °C for ketamine/norketamine spike solutions and the Processed sample stability was found to be 146.5 hours at room temperature. Also, the “Whole Blood Stability” value in series [3] is 120 minutes at room temperature and in an ice-water bath (0-4° C.). Besides, in series [3] (setting [10]), the Stock solution stability was 6 h. The same compound yielded a Stock solution stability in series [3] (stock solutions at −20° C.) of 15100 h.
Consider `CNC1(c2ccccc2Cl)CCCCC1=O` (racemic) [ketamine, reference compound], for which the “QC sample freeze/thaw stability” value in series [3] (setting [8]) is listed as 3 freeze (−20° C.)/thaw (ice-water bath) cycles. For the same compound, the “QC sample freeze/thaw stability” value in series [3] (setting [9]) was 3 freeze (−20° C.)/thaw (room temperature) cycles. Besides, in series [3], the “QC sample long-term storage stability” value was 1552 days at −20 °C, the “QC sample bench-top stability” value amounted to 68.5 hours at room temp, the “Stock solution stability (spike solutions)” value is 610 days at −20 °C for ketamine/norketamine spike solutions and the Processed sample stability was 146.5 hours at room temperature. Moreover, the “Whole Blood Stability” value in series [3] was 120 minutes at room temperature and in an ice-water bath (0-4° C.). This compound displayed a Stock solution stability in series [3] (setting [10]) of 6 h. Also, in series [3] (stock solutions at −20° C.), the Stock solution stability worked out at 15100 h. In addition, the “ED50-value for the induction of neuronal vacuolation in the PCG/RSC” value in series [4] is 47.5 mg/kg body weight.
